Patent publication US20230014445A1, “ALLOSTERIC CHROMENONE INHIBITORS OF PHOSPHOINOSITIDE 3-KINASE (PI3K) FOR THE TREATMENT OF DISEASE” (Petra Pharma Corporation, priority 2021, published 2023)
Like-named read-outs stand apart in the source and are kept apart here.

How the values were obtained:
[1] = molecular target: PI3K-α (PIK3CA) in MDA-MB-453 cells (Homo sapiens, UniProt P42336); assay: PI3K-Alpha Kinase (PIK3CA) activity in vitro cell based assay (AlphaLisa SureFire)
Method: PI3K-Alpha Kinase (PIK3CA) Activity In Vitro Cell Based Assay and Determining IC50 Values for Inhibitors
The MDA-MB-453 (ATCC-HTB-131) cell line was obtained from the American Type Culture Collection (Manassas, Va.). Cells were maintained in Dulbecco's Modified Eagle Media (DMVEM, Gibco 11965-092) supplemented with 10% Fetal Bovine Serum, heat inactivated (FBS HI, Gibco 10082-147), 1× non-essential amino acids (NEAA, Gibco 11140-050), and 1 mM sodium pyruvate (Gibco 11360-070). Cultures were maintained in a humidified incubator at 37° C. under […].
For compound testing in 0% FBS, MDA-MB-453 cells were seeded at a density of 1.5×10^4 cells per well in white 384-well plates in 20 μl of Minimum Essential Media (MEM) assay media with 1×NEAA, 1 mM sodium pyruvate, and 1 μg/mL human insulin (Sigma I9278). Compounds dissolved in 10 mM stock solutions in DMSO were serially diluted 1:3 in DMSO to generate a 10-point dilution series and plated using an acoustic liquid handler system (Echo 550 Series Liquid Handler, Labcyte). A 5× intermediate compound dilution plate in MEM with 1×NEAA and 1 mM sodium pyruvate (150 μM starting compound concentration in 1.5% DMSO) was then prepared. Five μl of the intermediate serially diluted compounds were added to the cell plate to final concentrations ranging from […] in 0.3% DMSO. 0.3% DMSO alone was used to establish the maximum (MAX) signal and GDC-0032 at a final concentration of 1 μM was used as a reference compound for the minimum (MIN) signal. After 3 hours treatment, the medium was removed, and the cells lysed in 10 μL of 1× SureFire Lysis buffer with shaking for 10 minutes at room temperature. The Acceptor Mix (Reaction Buffer 1+Reaction Buffer 2+Activation Buffer+SureFire Ultra Acceptor Beads) was prepared by diluting Activation buffer 25-fold in combined Reaction Buffer 1 and Reaction Buffer 2. The Acceptor beads were diluted 50-fold in the combined Reaction Buffers. Five μL of Acceptor Mix was added to each well, the plate was sealed and covered with foil and incubated for 1 hour at room temperature. The Donor Mix (dilution buffer+SureFire Ultra Donor Beads) was prepared by diluting Donor Beads 50-fold in dilution buffer. Five μL of the Donor Mix was added to each well and the plate sealed and covered with foil and incubated for 1 hour at room temperature in the dark. The plates were read on a Neo2 plate reader instrument from Biotek using standard AlphaLisa settings.
Compounds were tested in duplicate and the average % inhibition at each compound concentration was used to generate a single dose response curve. The data were processed using the Genedata-Screener tool. Relative IC50 values were determined using luminescence units by calculating percent inhibition with respect to the in-plate “MIN” (GDC-0032 reference control) and “MAX” (DMSO) controls. The data was analyzed using a 4-parameter nonlinear logistic equation (four-parameter logistic concentration-response curve):
Y=bottom+[(top−bottom)/1+(X/IC50)slope]
where Y=% inhibition, X=concentration of inhibitor, bottom=minimum value of y attained by curve-fit, top=maximum value of y attained by curve-fit and slope=steepness of curve at the IC50.
% Inhibition=[(signal at X−median Min)/(median Max−median Min)]×100
IC50: concentration of compound that reduces a given response (ligand binding, enzyme response) by 50%. Relative IC50: concentration giving half the compound's maximum response.
For IC50 values shown in Table B, “A” means IC50<50 nM; “B” means IC50 ranging between 50 nM and 100 nM; “C” means IC50 ranging between 100 nM and 500 nM; “D” means IC50>500 nM.

[2] = molecular target: T1, human full length PIK3KA Wild-type (p110α/p85α complex) (Homo sapiens, UniProt P42336); assay: PI3K-Alpha Kinase (PIK3CA) biochemical activity, wild-type (ADP-Glo); conditions: 20 uM ATP
T1 construct: Recombinant, catalytically active human full length PIK3KA Wild-type and H1047R mutant were purchased; 6xHis (N); purchased EMD Millipore Sigma 14-602M
Method in brief: (§1)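 ADP formation, measured by ADP-Glo luminescence after reaction to about 10% ATP conversion at 27° C., gives 10-point 4-parameter IC50 curves normalized to no-enzyme and DMSO controls. Lipid substrate was PIP2diC8 or Soy PI at 50 uM, with 20 uM ATP. WT or H1047R p110α/p85α complex (1-5 nM) was preincubated 1 h with compound.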

[3] = molecular target: T2, human full length PIK3KA H1047R mutant (p110α/p85α complex) (Homo sapiens, UniProt P42336, H1047R); assay: PI3K-Alpha Kinase (PIK3CA) biochemical activity, H1047R mutant (ADP-Glo); conditions: 20 uM ATP
T2 construct: Recombinant, catalytically active human full length PIK3KA Wild-type and H1047R mutant were purchased; 6xHis (N); purchased EMD Millipore Sigma 14-792M
T2 sequence (P42336 whole entry H1047R): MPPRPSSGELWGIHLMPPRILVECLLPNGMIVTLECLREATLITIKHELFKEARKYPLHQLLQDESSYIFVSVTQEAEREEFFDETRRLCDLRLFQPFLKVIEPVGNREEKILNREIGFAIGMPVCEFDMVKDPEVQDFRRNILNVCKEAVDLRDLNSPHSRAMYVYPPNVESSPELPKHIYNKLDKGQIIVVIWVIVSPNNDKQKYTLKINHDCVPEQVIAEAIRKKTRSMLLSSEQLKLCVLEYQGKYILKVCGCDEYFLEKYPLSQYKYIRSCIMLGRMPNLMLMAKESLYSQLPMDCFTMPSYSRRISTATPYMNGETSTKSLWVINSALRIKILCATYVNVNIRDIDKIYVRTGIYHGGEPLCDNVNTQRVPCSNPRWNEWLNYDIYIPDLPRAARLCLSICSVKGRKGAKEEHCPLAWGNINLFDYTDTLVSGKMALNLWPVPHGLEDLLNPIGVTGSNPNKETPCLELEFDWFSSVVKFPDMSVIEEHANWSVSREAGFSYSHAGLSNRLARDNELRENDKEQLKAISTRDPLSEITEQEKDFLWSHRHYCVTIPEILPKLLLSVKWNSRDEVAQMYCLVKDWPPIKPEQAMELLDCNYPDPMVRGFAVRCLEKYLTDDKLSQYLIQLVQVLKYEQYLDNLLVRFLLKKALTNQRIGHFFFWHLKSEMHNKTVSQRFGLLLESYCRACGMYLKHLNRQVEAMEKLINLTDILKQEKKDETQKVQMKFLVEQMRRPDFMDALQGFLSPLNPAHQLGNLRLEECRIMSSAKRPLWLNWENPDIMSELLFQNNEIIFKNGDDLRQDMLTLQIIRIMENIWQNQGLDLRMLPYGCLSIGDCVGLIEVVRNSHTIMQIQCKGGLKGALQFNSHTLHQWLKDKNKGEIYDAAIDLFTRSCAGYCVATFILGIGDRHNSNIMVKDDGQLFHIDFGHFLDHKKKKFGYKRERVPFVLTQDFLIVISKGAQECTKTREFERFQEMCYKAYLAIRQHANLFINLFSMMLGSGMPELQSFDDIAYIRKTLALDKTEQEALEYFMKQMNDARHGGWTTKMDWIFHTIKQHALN
T2 sequence (P27986 whole entry partner): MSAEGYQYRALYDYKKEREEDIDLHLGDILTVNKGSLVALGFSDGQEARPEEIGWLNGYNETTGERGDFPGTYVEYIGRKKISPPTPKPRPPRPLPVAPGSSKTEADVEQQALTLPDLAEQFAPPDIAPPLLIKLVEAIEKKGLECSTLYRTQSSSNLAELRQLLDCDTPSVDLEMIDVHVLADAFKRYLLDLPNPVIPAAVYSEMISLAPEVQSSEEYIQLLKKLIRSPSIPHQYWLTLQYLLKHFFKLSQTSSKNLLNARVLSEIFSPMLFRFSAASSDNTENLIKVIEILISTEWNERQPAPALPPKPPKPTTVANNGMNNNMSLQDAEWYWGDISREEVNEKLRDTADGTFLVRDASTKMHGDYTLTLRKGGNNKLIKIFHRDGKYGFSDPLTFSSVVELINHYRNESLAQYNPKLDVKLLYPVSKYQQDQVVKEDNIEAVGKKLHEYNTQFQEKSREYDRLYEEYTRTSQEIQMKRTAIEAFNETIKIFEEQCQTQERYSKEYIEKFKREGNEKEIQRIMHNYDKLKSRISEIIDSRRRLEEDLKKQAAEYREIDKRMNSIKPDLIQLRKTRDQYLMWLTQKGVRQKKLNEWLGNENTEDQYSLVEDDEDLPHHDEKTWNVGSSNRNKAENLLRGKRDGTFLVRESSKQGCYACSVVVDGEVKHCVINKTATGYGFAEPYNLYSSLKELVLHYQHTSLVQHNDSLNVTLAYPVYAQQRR
Method in brief: as §1

[4] = read-out: PI3K-α (PIK3CA) in vitro cell based assay IC50, 0% FBS, 3 hours treatment
[5] = 0% FBS, 3 hours treatment, read-out: PI3K-α (PIK3CA) in vitro cell based assay IC50

Chain of PI3K-α (PIK3CA) in MDA-MB-453 cells (P42336 whole entry): as the sequence (P42336 whole entry H1047R) above, with R1047H counted along it
Chain of PI3K-α (PIK3CA) in MDA-MB-453 cells (P27986 2-724, further chain): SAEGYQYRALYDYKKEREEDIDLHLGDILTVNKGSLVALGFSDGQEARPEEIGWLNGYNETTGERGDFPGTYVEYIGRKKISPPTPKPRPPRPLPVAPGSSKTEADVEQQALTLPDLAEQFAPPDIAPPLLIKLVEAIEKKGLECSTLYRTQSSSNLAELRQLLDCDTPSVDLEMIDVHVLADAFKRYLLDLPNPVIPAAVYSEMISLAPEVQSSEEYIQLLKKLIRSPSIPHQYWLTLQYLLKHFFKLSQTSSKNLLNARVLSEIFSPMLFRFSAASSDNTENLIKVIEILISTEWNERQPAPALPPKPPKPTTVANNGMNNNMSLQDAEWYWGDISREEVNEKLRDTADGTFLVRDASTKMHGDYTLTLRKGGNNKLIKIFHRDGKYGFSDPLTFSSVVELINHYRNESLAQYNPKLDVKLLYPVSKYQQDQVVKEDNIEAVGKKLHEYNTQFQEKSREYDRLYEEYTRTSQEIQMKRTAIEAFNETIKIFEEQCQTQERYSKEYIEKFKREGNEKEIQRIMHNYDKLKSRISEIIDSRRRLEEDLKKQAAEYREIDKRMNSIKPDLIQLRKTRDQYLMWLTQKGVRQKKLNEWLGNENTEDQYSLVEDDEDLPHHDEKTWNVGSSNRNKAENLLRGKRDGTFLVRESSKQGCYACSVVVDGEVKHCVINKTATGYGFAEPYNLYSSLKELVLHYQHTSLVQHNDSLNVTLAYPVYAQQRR

| Compound | IC50 ([2]; Soy PI lipid substrate) | IC50 ([3]; Soy PI lipid substrate) | IC50 [1, 5] | IC50 ([2]; PIP2diC8 lipid substrate) | IC50 ([3]; PIP2diC8 lipid substrate) | IC50 [1, 4] |
| --- | --- | --- | --- | --- | --- | --- |
| Cc1cc(C(C)Nc2ccccc2C(=O)O)c2oc(-c3cc(C)n[nH]3)cc(=O)c2c1 (single isomer, unassigned) [Example 75, 2-[1-[6-Methyl-2-(3-methyl-1H-pyrazol-5-yl)-4-oxo-chromen-8-yl]ethylamino]benzoic acid, Isomer 2,2,2,2-trifluoroacetic acid] | 5000 to 10000 nM | < 500 nM | – | – | – | 50 to 100 nM |
| COc1ccc(-n2cc(-c3cc(=O)c4cc(C)cc(C(C)Nc5ccccc5C(=O)O)c4o3)cn2)cc1C#N (single isomer, unassigned) [Example 86, 2-[1-[2-[1-(3-Cyano-4-methoxy-phenyl)pyrazol-4-yl]-6-methyl-4-oxo-chromen-8-yl]ethylamino]benzoic acid, Isomer 2,2,2,2-trifluoroacetic acid] | 1000 to 5000 nM | < 500 nM | – | – | – | 100 to 500 nM |
| Cc1cc(C(C)Nc2ccccc2C(=O)O)c2oc(-c3cnn(-c4ccc(C#N)c(F)c4)c3)cc(=O)c2c1 (single isomer, unassigned) [Example 85, 2-[1-[2-[1-(4-Cyano-3-fluoro-phenyl)pyrazol-4-yl]-6-methyl-4-oxo-chromen-8-yl]ethylamino]benzoic acid, Isomer 2,2,2,2-trifluoroacetic acid] | 1000 to 5000 nM | < 500 nM | – | – | – | 100 to 500 nM |
| Cc1cc(C(C)Nc2ccc(Br)nc2C(=O)O)c2oc(-c3cccnc3)c(C)c(=O)c2c1 (single isomer, unassigned; isomer 1) [Example 129, 6-Bromo-3-[1-[3,6-dimethyl-4-oxo-2-(3-pyridyl)chromen-8-yl]ethylamino]pyridine-2-carboxylic acid, Isomer 1] | < 500 nM | < 500 nM | < 50 nM | – | – | – |
| Cc1cc(C(C)Nc2ccccc2C(=O)O)c2oc(-c3cncc(C#N)c3)c(C)c(=O)c2c1 (single isomer, unassigned) [Example 125, 2-[1-[2-(5-Cyano-3-pyridyl)-3,6-dimethyl-4-oxo-chromen-8-yl]ethylamino]benzoic acid, Isomer 1,2,2,2-trifluoroacetic acid] | 500 to 1000 nM | < 500 nM | – | – | – | < 50 nM |
| Cc1cc(C(C)Nc2ccc(C)nc2C(=O)O)c2oc(-c3ccccn3)c(C)c(=O)c2c1 (single isomer, unassigned; isomer 1) [Example 122, 3-[1-[3,6-Dimethyl-4-oxo-2-(2-pyridyl)chromen-8-yl]ethylamino]-6-methyl-pyridine-2-carboxylic acid, Isomer 1] | 5000 to 10000 nM | < 500 nM | 50 to 100 nM | – | – | – |
| Cc1cc(C(C)Nc2ccc(F)c(F)c2C(=O)O)c2oc(-c3ccccn3)c(C)c(=O)c2c1 (single isomer, unassigned; isomer 1) [Example 128, 6-[1-[3,6-Dimethyl-4-oxo-2-(2-pyridyl)chromen-8-yl]ethylamino]-2,3-difluoro-benzoic acid, Isomer 1] | 500 to 1000 nM | < 500 nM | 50 to 100 nM | – | – | – |
| CC(Nc1ccccc1C(=O)O)c1cc(F)cc2c(=O)cc(-c3ccccn3)oc12 (single isomer, unassigned) [Example 46, 2-[1-[6-Fluoro-4-oxo-2-(2-pyridyl)chromen-8-yl]ethylamino]benzoic acid, Isomer 1,2,2,2-trifluoroacetic acid] | 5000 to 10000 nM | < 500 nM | – | – | – | < 50 nM |
| Cc1cc(C(C)Nc2cccnc2C(=O)O)c2oc(-c3cncc(F)c3)c(C)c(=O)c2c1 (single isomer, unassigned; isomer 1) [Example 131, 3-[1-[2-(5-Fluoro-3-pyridyl)-3,6-dimethyl-4-oxo-chromen-8-yl]ethylamino]pyridine-2-carboxylic acid, Isomer 1] | > 10000 nM | 1000 to 5000 nM | 50 to 100 nM | – | – | – |
| Cc1cc(C(C)Nc2ccccc2C(=O)O)c2oc(-c3cn(-c4ccc(C#N)cc4)nn3)cc(=O)c2c1 (single isomer, unassigned) [Example 124, 2-[1-[2-[1-(4-Cyanophenyl)triazol-4-yl]-6-methyl-4-oxo-chromen-8-yl]ethylamino]benzoic acid, Isomer 2,2,2,2-trifluoroacetic acid] | 1000 to 5000 nM | < 500 nM | – | – | – | 50 to 100 nM |

Further lines, with some results ahead:

| IC50 ([2]; Soy PI lipid substrate) | IC50 ([3]; Soy PI lipid substrate) | IC50 [1, 5] | IC50 ([2]; PIP2diC8 lipid substrate) | IC50 ([3]; PIP2diC8 lipid substrate) | Compound | IC50 [1, 4] |
| --- | --- | --- | --- | --- | --- | --- |
| 5000 to 10000 nM | < 500 nM | 100 to 500 nM | – | – | Cc1cc(C(C)Nc2ccccc2C(=O)O)c2oc(-c3nccnc3C)cc(=O)c2c1 (single isomer, unassigned; isomer 2) [Example 29, 2-[1-[6-Methyl-2-(3-methylpyrazin-2-yl)-4-oxo-chromen-8-yl]ethylamino]benzoic acid, Isomer 2] | – |
| 1000 to 5000 nM | < 500 nM | 50 to 100 nM | – | – | COc1cccc(-c2cc(=O)c3cc(C)cc(C(C)Nc4ccccc4C(=O)O)c3o2)n1 (single isomer, unassigned; isomer 2) [Example 22, 2-[1-[2-(6-Methoxy-2-pyridyl)-6-methyl-4-oxo-chromen-8-yl]ethylamino]benzoic acid, Isomer 2] | – |
| 5000 to 10000 nM | 1000 to 5000 nM | > 500 nM | – | – | Cc1cc(C(C)Nc2ccc(F)c(F)c2C(=O)O)c2oc(-c3cnn(-c4ccc(C#N)cc4)c3)cc(=O)c2c1 (single isomer, unassigned; isomer 1) [Example 114, 6-[1-[2-[1-(4-Cyanophenyl)pyrazol-4-yl]-6-methyl-4-oxo-chromen-8-yl]ethylamino]-2,3-difluoro-benzoic acid, Isomer 1] | – |
| > 10000 nM | 5000 to 10000 nM | > 500 nM | – | – | Cc1cc(C(C)Nc2cccc(F)c2C(=O)O)c2oc(-c3cnn(-c4ccc(C#N)cc4)c3)cc(=O)c2c1 (single isomer, unassigned; isomer 1) [Example 112, 2-[1-[2-[1-(4-Cyanophenyl)pyrazol-4-yl]-6-methyl-4-oxo-chromen-8-yl]ethylamino]-6-fluoro-benzoic acid, Isomer 1] | – |
| 5000 to 10000 nM | < 500 nM | < 50 nM | – | – | Cc1cc(C(C)Nc2ccccc2C(=O)O)c2oc(-c3ccc(F)nc3)cc(=O)c2c1 (single isomer, unassigned; isomer 2) [Example 36, 2-[1-[2-(6-Fluoro-3-pyridyl)-6-methyl-4-oxo-chromen-8-yl]ethylamino]benzoic acid, Isomer 2] | – |
| > 10000 nM | > 10000 nM | > 500 nM | – | – | Cc1cc(C(C)Nc2ccccc2C(=O)O)c2oc(-c3ccc(F)nc3)cc(=O)c2c1 (single isomer, unassigned; isomer 1) [Example 35, 2-[1-[2-(6-Fluoro-3-pyridyl)-6-methyl-4-oxo-chromen-8-yl]ethylamino]benzoic acid, Isomer 1] | – |
| – | – | > 500 nM | > 10000 nM | > 10000 nM | COc1ncc(-c2cc(=O)c3cc(C)cc(C(C)Nc4ccccc4C(=O)O)c3o2)cn1 (single isomer, unassigned) [Example 5, 2-[1-[2-(2-Methoxypyrimidin-5-yl)-6-methyl-4-oxo-chromen-8-yl]ethylamino]benzoic acid] | – |
